Laboratory results taken from US20240254118A1, “PRMT5 INHIBITORS AND USES THEREOF” (Gilead Sciences, Inc., priority 2022, published 2024).

Test system: HCT116 MTAP-deleted cells
Test: Cell viability assay (CellTiter-Glo, 7 days), HCT116 MTAP-deleted
Conditions: Homo sapiens, HCT-116, 168 h

`CC(=O)N(C)N(Cc1ccc(-c2cnn(C(F)(F)F)c2)nc1F)C(=O)c1ccc2nc(N)c3cnn(C)c3c2c1` [Example 347, N′-acetyl-4-amino-N-((2-fluoro-6-(1-(trifluoromethyl)-1H-pyrazol-4-yl)pyridin-3-yl)methyl)-N′,1-dimethyl-1H-pyrazolo[4,3-c]quinoline-8-carbohydrazide] and `CC(=O)N(C)N(Cc1ccc(-c2cnn(C(F)F)c2)nc1F)C(=O)c1ccc2nc(N)c3cnn(C)c3c2c1` [Example 348, N′-acetyl-4-amino-N-((6-(1-(difluoromethyl)-1H-pyrazol-4-yl)-2-fluoropyridin-3-yl)methyl)-N′,1-dimethyl-1H-pyrazolo[4,3-c]quinoline-8-carbohydrazide] cannot be ordered by CC50: < 100 nM for the first, < 100 nM for the second.

Compared with `CN(C(=O)C1CC1)N(Cc1ccc(-c2cnn(C(F)F)c2)cn1)C(=O)c1ccc2nc(N)c3cnn(C)c3c2c1` [Example 353, 4-amino-N′-(cyclopropanecarbonyl)-N-((5-(1-(difluoromethyl)-1H-pyrazol-4-yl)pyridin-2-yl)methyl)-N′,1-dimethyl-1H-pyrazolo[4,3-c]quinoline-8-carbohydrazide], `CN(C(=O)C1CC1)N(Cc1ccc(-c2cnn(C)c2)cn1)C(=O)c1ccc2nc(N)c3cnn(C)c3c2c1` [Example 356, 4-amino-N′-(cyclopropanecarbonyl)-N′,1-dimethyl-N-((5-(1-methyl-1H-pyrazol-4-yl)pyridin-2-yl)methyl)-1H-pyrazolo[4,3-c]quinoline-8-carbohydrazide] is higher in CC50: < 100 nM for the first, 100 to 1000 nM for the second.

`CN(C(=O)C1CC1)N(Cc1ccc(Br)cn1)C(=O)c1ccc2nc(N)c3cnn(C)c3c2c1` [Example 354, 4-amino-N-((5-bromopyridin-2-yl)methyl)-N′-(cyclopropanecarbonyl)-N′,1-dimethyl-1H-pyrazolo[4,3-c]quinoline-8-carbohydrazide] and `CN(C(=O)C1CC1)N(Cc1ccc(C2CC2)cn1)C(=O)c1ccc2nc(N)c3cnn(C)c3c2c1` [Example 357, 4-amino-N′-(cyclopropanecarbonyl)-N-((5-cyclopropylpyridin-2-yl)methyl)-N′,1-dimethyl-1H-pyrazolo[4,3-c]quinoline-8-carbohydrazide] cannot be ordered by CC50: < 100 nM for the first, < 100 nM for the second.

`CN(C(=O)C1CC1)N(Cc1ccc(-c2cncs2)cn1)C(=O)c1ccc2nc(N)c3cnn(C)c3c2c1` [Example 355, 4-amino-N′-(cyclopropanecarbonyl)-N′,1-dimethyl-N-((5-(thiazol-5-yl)pyridin-2-yl)methyl)-1H-pyrazolo[4,3-c]quinoline-8-carbohydrazide] and `CN(C(=O)C1CC1)N(Cc1ccc(-c2ccc(C(F)(F)F)s2)cn1)C(=O)c1ccc2nc(N)c3cnn(C)c3c2c1` [Example 369, 4-amino-N′-(cyclopropanecarbonyl)-N′,1-dimethyl-N-((5-(5-(trifluoromethyl)thiophen-2-yl)pyridin-2-yl)methyl)-1H-pyrazolo[4,3-c]quinoline-8-carbohydrazide] cannot be ordered by CC50: < 100 nM for the first, < 100 nM for the second.

`CN(C(=O)C1CC1(F)F)N(Cc1ccc(C(F)(F)F)cn1)C(=O)c1ccc2nc(N)c3cnn(C)c3c2c1` (centres unmarked) [Example 358, 4-amino-N′-(2,2-difluorocyclopropane-1-carbonyl)-N′,1-dimethyl-N-((5-(trifluoromethyl)pyridin-2-yl)methyl)-1H-pyrazolo[4,3-c]quinoline-8-carbohydrazide] and `CC(=O)N(C)N(Cc1cc(F)c(C(F)(F)F)cc1F)C(=O)c1ccc2nc(N)c3cnn(C)c3c2c1` [Example 368, N′-acetyl-4-amino-N-(2,5-difluoro-4-(trifluoromethyl)benzyl)-N′, 1-dimethyl-1H-pyrazolo[4,3-c]quinoline-8-carbohydrazide] cannot be ordered by CC50: < 100 nM for the first, < 100 nM for the second.

In the case of `CC(=O)N(C)N(Cc1c(F)cc(Cl)cc1F)C(=O)c1ccc2nc(N)c3cnn(C)c3c2c1` [Example 367, N′-acetyl-4-amino-N-(4-chloro-2,6-difluorobenzyl)-N′,1-dimethyl-1H-pyrazolo[4,3-c]quinoline-8-carbohydrazide], the CC50 is reported as < 100 nM.
